Experiment [1] concerns the target IL-17A(FLAG-Tagged): IL-17RA(His-Tagged) (Homo sapiens, UniProt Q16552, K93Q). Put plainly: IL-17A(FLAG-Tagged): IL-17RA(His-Tagged) Binding Disruption Eu-HTRF Assay. Particulars: disruption of IL-17A/IL-17RA binding; simple average if tested more than once. The source says: IL-17A(FLAG-Tagged): IL-17RA(His-Tagged) Binding Disruption Eu-HTRF Assay
An antibody directed against the FLAG tag of IL-17A (SEQ ID NO: 1) is labeled with the HTRF donor chromophore (Europium-cryptate). IL-17A is present as a dimer that is “locked into” this quaternary structure due to the formation of loop-spanning […] disulfide bridges. The construct of IL-17RA used in the assay excludes the […] portion of the receptor and is fused to a C-terminal 10×His tag (SEQ ID NO:2). An antibody directed against the His tag of the IL-17RA chimera is labeled with the HTRF acceptor chromophore (“D2”). The fluorescence-resonance energy transfer (FRET) depends on the vicinity of the donor chromophore to the acceptor, and interruption of the binding between the IL-17A and IL-17RA causes the reduction/loss of FRET. Therefore, this assay allows to evaluate the compound effect on the binding IL-17A and IL-17RA by monitoring the fluorescence intensity of donor vs acceptor. The assay is run as described below.
40 nL of 2-fold serial diluted compound solution for total 22 dilution points is added into each well of a 1536-well, white, low-volume, non-binding plate (Greiner #782904), then 2 μL of FLAG tagged IL-17A at 2× final concentration (2.5 nM) in solution of PBS+0.01% Triton-X100 is added to each well. The assay plate is briefly centrifuged then incubated for 1 h at rt. A mixed solution is prepared containing 2×5 nM 10HIS×IL-17RA, 2×2.5 nM Eu-anti-FLAG (CISBIO), 2×5 nM D2-anti-HIS (CISBIO) in PBS+0.01% Triton-X100+200 mM Potassium Fluoride (Sigma 60238) and 2 μL of mix is added to each well of the assay plate. The plate is briefly centrifuged then incubated for 2 h at rt. The HTRF intensities at the wavelength of donor (620 nm) and acceptor (665 nm) are measured using BMG Pherastar. The ratio between intensities at two wavelengths is calculated and plotted against the compound concentration and the data is fitted to a one-site competition model to yield IC50 of the compound.
On the technique in general: In TR-FRET formats the signal depends on donor and acceptor labels being close together.

Experiment [2] concerns IL-17A-induced G-CSF production in human normal keratinocytes (NHK). Nature of the experiment: NHK Assay: IL-17A-induced G-CSF production in human normal keratinocytes. The format is cell-based. The note with it: IL-17A 5 ng/mL, 24 h, 5% FBS, simple average if tested more than once. The method, then:
IL-17A acts directly on keratinocytes through binding to dimeric receptor IL-17RA/RC and drives the production of a number of inflammatory mediators known to be elevated in psoriasis lesional tissue. IL-17A small molecule inhibitors that block the IL-17A to interact with IL-17R would inhibit the IL-17A signaling in its targeted cells such as keratinocytes. The compound functional activity is evaluated for its impact on IL-17A-induced G-CSF production in human normal keratinocytes (NHK).
Adult normal human keratinocytes are cultured in keratinocyte growth medium (Lonza) in a flask till reaching ˜ 90% confluence, then cells are transferred to a 384-well plate at density of 3000-4000 cell/well. Recombinant human IL-17A (Gibco PHC9174) is pre-incubated with titrated compound or DMSO for 1 h at rt then added to the cell culture plate. The final concentration of IL-17A is 5 ng/mL and DMSO is 0.2%, in the culture containing 5% FBS. Cells are cultured/treated for 24 h at 37° C. Supernatants are collected and G-CSF production is measured through HTRF technology using Human G-CSF Kit (CisBio). G-CSF concentration was extrapolated from the standard curve and IC50 is determined using GraphPad Prism. Cell viability is also evaluated using CellTiter-Glo kit (Promega) and effect of compound on cell viability is compared to DMSO control.

Data on seven molecules can be found in patent US12559496B2, “Imidazopyrimidines as modulators of IL-17” (Janssen Pharmaceutica NV, priority 2020, dated 2026).

In general, IC50 refers to the concentration that gives 50% inhibition.

Chain of UniProt Q16552 (Q16552 with tags, fused parts or gaps K93Q): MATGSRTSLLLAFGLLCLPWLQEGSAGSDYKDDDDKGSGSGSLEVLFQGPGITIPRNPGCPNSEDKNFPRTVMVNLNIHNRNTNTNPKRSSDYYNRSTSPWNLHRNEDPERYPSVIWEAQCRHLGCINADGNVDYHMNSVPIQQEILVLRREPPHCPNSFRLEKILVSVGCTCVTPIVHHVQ

As for `CC(CC(=O)N[C@@H](c1ccn2cc([C@@H](NC(=O)c3ncnn3CC3CC3)C3CCC(F)(F)CC3)nc2n1)C1CC1)C(F)(F)F` (single isomer, unassigned) [Example 19, N—((S)-(7-((R)-Cyclopropyl((S*)-4,4,4-trifluoro-3-methylbutanamido)methyl)imidazo[1,2-a]pyrimidin-2-yl)(4,4-difluorocyclohexyl)methyl)-1-(cyclopropylmethyl)-1H-1,2,4-triazole-5-carboxamide], the IC50 was 260 nM in experiment [1] and 1200 nM in experiment [2].

Regarding `CC(CC(=O)N[C@@H](c1ccn2cc([C@@H](NC(=O)c3ncnn3CC3CC3)C3CCC(F)(F)CC3)nc2n1)C1CC1)C(F)(F)F` (single isomer, unassigned) [Example 20, N—((S)-(7-((R)-Cyclopropyl((R*)-4,4,4-trifluoro-3-methylbutanamido)methyl)imidazo[1,2-a]pyrimidin-2-yl)(4,4-difluorocyclohexyl)methyl)-1-(cyclopropylmethyl)-1H-1,2,4-triazole-5-carboxamide], the IC50 in experiment [1] was 470 nM; in experiment [2], 2800 nM.

As for `Cc1c(C(=O)N[C@H](c2cn3ccc(C(NC(=O)CCC(F)(F)F)C4CC4)nc3n2)C2CCC(F)(F)CC2)cnn1CCC(F)(F)F` (single isomer, unassigned) [Example 38, N—((S)-(7-((S*)-Cyclopropyl(4,4,4-trifluorobutanamido)methyl)imidazo[1,2-a]pyrimidin-2-yl)(4,4-difluorocyclohexyl)methyl)-5-methyl-1-(3,3,3-trifluoropropyl)-1H-pyrazole-4-carboxamide], the IC50 in experiment [1] came to 890 nM; in experiment [2], 930 nM.

As to `Cc1c(C(=O)N[C@H](c2cn3ccc(C(NC(=O)CCC(F)(F)F)C4CC4)nc3n2)C2CCC(F)(F)CC2)cnn1CCC(F)(F)F` (single isomer, unassigned) [Example 39, N—((S)-(7-((R*)-Cyclopropyl(4,4,4-trifluorobutanamido)methyl)imidazo[1,2-a]pyrimidin-2-yl)(4,4-difluorocyclohexyl)methyl)-5-methyl-1-(3,3,3-trifluoropropyl)-1H-pyrazole-4-carboxamide], the IC50 was 13000 nM in experiment [1] and around 20000 nM in experiment [2].

Regarding `O=C(CCC(F)(F)F)NC(c1ccn2cc([C@@H](NC(=O)c3cnn(CCC(F)(F)F)n3)C3CCC(F)(F)CC3)nc2n1)C1CC1` (single isomer, unassigned) [Example 40, N—((S)-(7-((S*)-Cyclopropyl(4,4,4-trifluorobutanamido)methyl)imidazo[1,2-a]pyrimidin-2-yl)(4,4-difluorocyclohexyl)methyl)-2-(3,3,3-trifluoropropyl)-2H-1,2,3-triazole-4-carboxamide], the IC50 in experiment [1] turned out to be 310 nM; in experiment [2] it was 360 nM.

`O=C(CCC(F)(F)F)NC(c1ccn2cc([C@@H](NC(=O)c3cnn(CCC(F)(F)F)n3)C3CCC(F)(F)CC3)nc2n1)C1CC1` (single isomer, unassigned) [Example 41, N—((S)-(7-((R*)-Cyclopropyl(4,4,4-trifluorobutanamido)methyl)imidazo[1,2-a]pyrimidin-2-yl)(4,4-difluorocyclohexyl)methyl)-2-(3,3,3-trifluoropropyl)-2H-1,2,3-triazole-4-carboxamide]: the half-maximal inhibitory concentration (IC50) was determined as 2400 nM in experiment [1] and 2500 nM in experiment [2].

With `O=C(CCC(F)(F)F)NC(c1ccn2cc([C@@H](NC(=O)c3ccn(CCC(F)(F)F)n3)C3CCC(F)(F)CC3)nc2n1)C1CC1` (single isomer, unassigned) [Example 42, N—((S)-(7-((S*)-Cyclopropyl(4,4,4-trifluorobutanamido)methyl)imidazo[1,2-a]pyrimidin-2-yl)(4,4-difluorocyclohexyl)methyl)-1-(3,3,3-trifluoropropyl)-1H-pyrazole-3-carboxamide], the IC50 was found to be 480 nM in experiment [1] and 520 nM in experiment [2].
